# Source: ChEMBL document CHEMBL4257449, “New N-(2-phenyl-4-oxo-1,3-thiazolidin-3-yl)-1,2-benzothiazole-3-carboxamides and acetamides as antimicrobial agents” (2017)
# Test system: Pseudomonas aeruginosa
# Test: Bactericidal activity against Pseudomonas aeruginosa ATCC 27853 incubated for 24 hrs followed by serial sub-cultivation and measured after 24 hrs by microdilution method
# Format: functional
# Conditions: not given
row,Compound,MBC99.5
1,O=C(Cc1nsc2ccccc12)NN1C(=O)CSC1c1c(F)cccc1Cl (configuration not stated),36.7 ×10⁻² umol/ml

# Test system: Aspergillus versicolor
# Test: Antifungal activity against Aspergillus versicolor ATCC 11730 after 72 hrs by serial dilution method
# Format: functional
# Conditions: ATCC 11730, 72 h
row,MIC,Compound
1,49 µM,O=C(Cc1nsc2ccccc12)NN1C(=O)CSC1c1c(F)cccc1Cl (configuration not stated)

# Test system: Aspergillus niger
# Test: Fungicidal activity against Aspergillus niger ATCC 6275 incubated for 72 hrs followed by serial sub-cultivation for 72 hrs and measured after 72 hrs by serial dilution method
# Format: functional
# Conditions: not given
row,Compound,MFC99.5
1,O=C(Cc1nsc2ccccc12)NN1C(=O)CSC1c1c(F)cccc1Cl (configuration not stated),36.7 ×10⁻² umol/ml

# Test system: Aspergillus fumigatus
# Test: Antifungal activity against Aspergillus fumigatus after 72 hrs by serial dilution method
# Format: functional
# Conditions: not given
row,MIC,Compound
1,98 µM,O=C(Cc1nsc2ccccc12)NN1C(=O)CSC1c1c(F)cccc1Cl (configuration not stated)

# Test system: Salmonella typhimurium
# Test: Antibacterial activity against Salmonella typhimurium ATCC 13311 after 24 hrs by microdilution method
# Format: functional, Salmonella enterica subsp. enterica serovar Typhimurium
# Conditions: Salmonella enterica, ATCC 13311, 24 h
row,MIC,Compound
1,196 µM,O=C(Cc1nsc2ccccc12)NN1C(=O)CSC1c1c(F)cccc1Cl (configuration not stated)

# Test system: Candida albicans
# Test: Antifungal activity against Candida albicans after 72 hrs by serial dilution method
# Format: functional
# Conditions: not given
row,MIC,Compound
1,49 µM,O=C(Cc1nsc2ccccc12)NN1C(=O)CSC1c1c(F)cccc1Cl (configuration not stated)

# Test system: Talaromyces funiculosus
# Test: Fungicidal activity against Penicillium funiculosum ATCC 36839 incubated for 72 hrs followed by serial sub-cultivation for 72 hrs and measured after 72 hrs by serial dilution method
# Format: functional
# Conditions: not given
row,Compound,MFC99.5
1,O=C(Cc1nsc2ccccc12)NN1C(=O)CSC1c1c(F)cccc1Cl (configuration not stated),9.8 ×10⁻² umol/ml

# Test system: Enterobacter cloacae
# Test: Bactericidal activity against Enterobacter cloacae incubated for 24 hrs followed by serial sub-cultivation and measured after 24 hrs by microdilution method
# Format: functional
# Conditions: not given
row,Compound,MBC99.5
1,O=C(Cc1nsc2ccccc12)NN1C(=O)CSC1c1c(F)cccc1Cl (configuration not stated),19.6 ×10⁻² umol/ml

# Test system: Staphylococcus aureus
# Test: Antibacterial activity against Staphylococcus aureus ATCC 6538 after 24 hrs by microdilution method
# Format: functional
# Conditions: ATCC 6538, 24 h
row,MIC,Compound
1,147 µM,O=C(Cc1nsc2ccccc12)NN1C(=O)CSC1c1c(F)cccc1Cl (configuration not stated)

# Test system: Penicillium ochrochloron
# Test: Fungicidal activity against Penicillium ochrochloron ATCC 9112 incubated for 72 hrs followed by serial sub-cultivation for 72 hrs and measured after 72 hrs by serial dilution method
# Format: functional
# Conditions: not given
row,Compound,MFC99.5
1,O=C(Cc1nsc2ccccc12)NN1C(=O)CSC1c1c(F)cccc1Cl (configuration not stated),9.8 ×10⁻² umol/ml

# Test system: Aspergillus ochraceus
# Test: Antifungal activity against Aspergillus ochraceus ATCC 12066 after 72 hrs by serial dilution method
# Format: functional
# Conditions: ATCC 12066, 72 h
row,MIC,Compound
1,98 µM,O=C(Cc1nsc2ccccc12)NN1C(=O)CSC1c1c(F)cccc1Cl (configuration not stated)

# Test system: Salmonella typhimurium
# Test: Bactericidal activity against Salmonella typhimurium ATCC 13311 incubated for 24 hrs followed by serial sub-cultivation and measured after 24 hrs by microdilution method
# Format: functional, Salmonella enterica subsp. enterica serovar Typhimurium
# Conditions: not given
row,Compound,MBC99.5
1,O=C(Cc1nsc2ccccc12)NN1C(=O)CSC1c1c(F)cccc1Cl (configuration not stated),36.7 ×10⁻² umol/ml

# Test system: Escherichia coli
# Test: Antibacterial activity against Escherichia coli ATCC 35210 after 24 hrs by microdilution method
# Format: functional
# Conditions: ATCC 35210, 24 h
row,MIC,Compound
1,270 µM,O=C(Cc1nsc2ccccc12)NN1C(=O)CSC1c1c(F)cccc1Cl (configuration not stated)

# Test system: Listeria monocytogenes
# Test: Bactericidal activity against Listeria monocytogenes NCTC 7973 incubated for 24 hrs followed by serial sub-cultivation and measured after 24 hrs by microdilution method
# Format: functional
# Conditions: not given
row,Compound,MBC99.5
1,O=C(Cc1nsc2ccccc12)NN1C(=O)CSC1c1c(F)cccc1Cl (configuration not stated),73.4 ×10⁻² umol/ml

# Test system: Pseudomonas aeruginosa
# Test: Antibacterial activity against Pseudomonas aeruginosa ATCC 27853 after 24 hrs by microdilution method
# Format: functional
# Conditions: ATCC 27853, 24 h
row,MIC,Compound
1,270 µM,O=C(Cc1nsc2ccccc12)NN1C(=O)CSC1c1c(F)cccc1Cl (configuration not stated)

# Test system: Enterobacter cloacae
# Test: Antibacterial activity against Enterobacter cloacae after 24 hrs by microdilution method
# Format: functional
# Conditions: not given
row,MIC,Compound
1,147 µM,O=C(Cc1nsc2ccccc12)NN1C(=O)CSC1c1c(F)cccc1Cl (configuration not stated)

# Test system: Penicillium ochrochloron
# Test: Antifungal activity against Penicillium ochrochloron ATCC 9112 after 72 hrs by serial dilution method
# Format: functional
# Conditions: ATCC 9112, 72 h
row,MIC,Compound
1,49 µM,O=C(Cc1nsc2ccccc12)NN1C(=O)CSC1c1c(F)cccc1Cl (configuration not stated)

# Test system: Candida albicans
# Test: Fungicidal activity against Candida albicans incubated for 72 hrs followed by serial sub-cultivation for 72 hrs and measured after 72 hrs by serial dilution method
# Format: functional
# Conditions: not given
row,Compound,MFC99.5
1,O=C(Cc1nsc2ccccc12)NN1C(=O)CSC1c1c(F)cccc1Cl (configuration not stated),9.8 ×10⁻² umol/ml

# Test system: Trichoderma viride
# Test: Fungicidal activity against Trichoderma viride IAM 5061 incubated for 72 hrs followed by serial sub-cultivation for 72 hrs and measured after 72 hrs by serial dilution method
# Format: functional
# Conditions: not given
row,Compound,MFC99.5
1,O=C(Cc1nsc2ccccc12)NN1C(=O)CSC1c1c(F)cccc1Cl (configuration not stated),4.9 ×10⁻² umol/ml

# Test system: Aspergillus versicolor
# Test: Fungicidal activity against Aspergillus versicolor ATCC 11730 incubated for 72 hrs followed by serial sub-cultivation for 72 hrs and measured after 72 hrs by serial dilution method
# Format: functional
# Conditions: not given
row,Compound,MFC99.5
1,O=C(Cc1nsc2ccccc12)NN1C(=O)CSC1c1c(F)cccc1Cl (configuration not stated),9.8 ×10⁻² umol/ml

# Test system: Talaromyces funiculosus
# Test: Antifungal activity against Penicillium funiculosum ATCC 36839 after 72 hrs by serial dilution method
# Format: functional
# Conditions: ATCC 36839, 72 h
row,MIC,Compound
1,49 µM,O=C(Cc1nsc2ccccc12)NN1C(=O)CSC1c1c(F)cccc1Cl (configuration not stated)

# Test system: Micrococcus flavus
# Test: Bactericidal activity against Micrococcus flavus ATCC 10240 incubated for 24 hrs followed by serial sub-cultivation and measured after 24 hrs by microdilution method
# Format: functional
# Conditions: not given
row,Compound,MBC99.5
1,O=C(Cc1nsc2ccccc12)NN1C(=O)CSC1c1c(F)cccc1Cl (configuration not stated),36.7 ×10⁻² umol/ml

# Test system: Aspergillus ochraceus
# Test: Fungicidal activity against Aspergillus ochraceus ATCC 12066 incubated for 72 hrs followed by serial sub-cultivation for 72 hrs and measured after 72 hrs by serial dilution method
# Format: functional
# Conditions: not given
row,Compound,MFC99.5
1,O=C(Cc1nsc2ccccc12)NN1C(=O)CSC1c1c(F)cccc1Cl (configuration not stated),19.6 ×10⁻² umol/ml

# Test system: Staphylococcus aureus
# Test: Bactericidal activity against Staphylococcus aureus ATCC 6538 incubated for 24 hrs followed by serial sub-cultivation and measured after 24 hrs by microdilution method
# Format: functional
# Conditions: not given
row,Compound,MBC99.5
1,O=C(Cc1nsc2ccccc12)NN1C(=O)CSC1c1c(F)cccc1Cl (configuration not stated),19.6 ×10⁻² umol/ml

# Test system: Aspergillus fumigatus
# Test: Fungicidal activity against Aspergillus fumigatus incubated for 72 hrs followed by serial sub-cultivation for 72 hrs and measured after 72 hrs by serial dilution method
# Format: functional
# Conditions: not given
row,Compound,MFC99.5
1,O=C(Cc1nsc2ccccc12)NN1C(=O)CSC1c1c(F)cccc1Cl (configuration not stated),19.6 ×10⁻² umol/ml

# Test system: Listeria monocytogenes
# Test: Antibacterial activity against Listeria monocytogenes NCTC 7973 after 24 hrs by microdilution method
# Format: functional
# Conditions: NCTC 7973, 24 h
row,MIC,Compound
1,367 µM,O=C(Cc1nsc2ccccc12)NN1C(=O)CSC1c1c(F)cccc1Cl (configuration not stated)

# Test system: Micrococcus flavus
# Test: Antibacterial activity against Micrococcus flavus ATCC 10240 after 24 hrs by microdilution method
# Format: functional
# Conditions: ATCC 10240, 24 h
row,MIC,Compound
1,270 µM,O=C(Cc1nsc2ccccc12)NN1C(=O)CSC1c1c(F)cccc1Cl (configuration not stated)

# Test system: Bacillus cereus
# Test: Antibacterial activity against Bacillus cereus after 24 hrs by microdilution method
# Format: functional
# Conditions: not given
row,MIC,Compound
1,147 µM,O=C(Cc1nsc2ccccc12)NN1C(=O)CSC1c1c(F)cccc1Cl (configuration not stated)

# Test system: Aspergillus niger
# Test: Antifungal activity against Aspergillus niger ATCC 6275 after 72 hrs by serial dilution method
# Format: functional
# Conditions: ATCC 6275, 72 h
row,MIC,Compound
1,196 µM,O=C(Cc1nsc2ccccc12)NN1C(=O)CSC1c1c(F)cccc1Cl (configuration not stated)

# Test system: Bacillus cereus
# Test: Bactericidal activity against Bacillus cereus incubated for 24 hrs followed by serial sub-cultivation and measured after 24 hrs by microdilution method
# Format: functional
# Conditions: not given
row,Compound,MBC99.5
1,O=C(Cc1nsc2ccccc12)NN1C(=O)CSC1c1c(F)cccc1Cl (configuration not stated),36.7 ×10⁻² umol/ml

# Test system: Escherichia coli
# Test: Bactericidal activity against Escherichia coli ATCC 35210 incubated for 24 hrs followed by serial sub-cultivation and measured after 24 hrs by microdilution method
# Format: functional
# Conditions: not given
row,Compound,MBC99.5
1,O=C(Cc1nsc2ccccc12)NN1C(=O)CSC1c1c(F)cccc1Cl (configuration not stated),36.7 ×10⁻² umol/ml

# Test system: Trichoderma viride
# Test: Antifungal activity against Trichoderma viride IAM 5061 after 72 hrs by serial dilution method
# Format: functional
# Conditions: IAM 5061, 72 h
row,MIC,Compound
1,38 µM,O=C(Cc1nsc2ccccc12)NN1C(=O)CSC1c1c(F)cccc1Cl (configuration not stated)
